# Reference: US20150087673A1, “METHODS FOR USING AND BIOMARKERS FOR AMPK-ACTIVATING COMPOUNDS” (RIGEL PHARMACEUTICALS, INC., priority 2013, published 2015)
# Test system: AMPK
# Assay: AMPK activation assay (enzyme-linked immunosorbent assay)
# Format: cell-based
# Procedure, shortened: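 Activator screen performed per well-known kit methods.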
row,EC50 [nM],SMILES
1,< 500,"CS(=O)(=O)c1ccc(OC2CCN(C(=O)c3ccc(C(=O)Nc4ccc(Oc5ccc(F)cc5)nc4)nc3)CC2)cc1 [Compound 231, N-(6-(4-fluorophenoxy)pyridin-3-yl)-5-(4-(4-(methylsulfonyl)phenoxy)piperidine-1-carbonyl)picolinamide]"
2,< 500,"CS(=O)(=O)c1ccc(C(=O)C2CCN(C(=O)c3ccc(C(=O)NC4CCN(Cc5ccc(N6CCCC6)cc5)CC4)nc3)CC2)cc1 [Compound 233, 5-(4-(4-(methylsulfonyl)benzoyl)piperidine-1-carbonyl)-N-(1-(4-(pyrrolidin-1-yl)benzyl)piperidin-4-yl)picolinamide]"
3,1000 to 5000,"COc1ccc(CN2CCC(NC(=O)c3ccc(C(=O)N4CCC(Oc5ccc(S(C)(=O)=O)cc5)CC4)nc3)CC2)cc1 [Compound 237, N-(1-(4-methoxybenzyl)piperidin-4-yl)-6-(4-(4-(methylsulfonyl)phenoxy)piperidine-1-carbonyl)nicotinamide]"
4,1000 to 5000,"CS(=O)(=O)c1ccc(OC2CCN(C(=O)c3ccc(C(=O)NC4CCN(Cc5cccc(OC(F)(F)F)c5)CC4)cn3)CC2)cc1 [Compound 239, 6-(4-(4-(methylsulfonyl)phenoxy)piperidine-1-carbonyl)-N-(1-(3-(trifluoromethoxy)benzyl)piperidin-4-yl)nicotinamide]"
5,< 500,"N#Cc1ccc(CN2CCC(NC(=O)c3ccc(C(=O)N4CCC(C(=O)c5ccc(N=[N+]=[N-])cc5)CC4)nc3)CC2)cc1 [Compound 240, 6-(4-(4-azidobenzoyl)piperidine-1-carbonyl)-N-(1-(4-cyanobenzyl)piperidin-4-yl)nicotinamide]"
6,< 500,"N#Cc1ccc(CN2CCC(NC(=O)c3ccc(C(=O)N4CCN(c5ccc(S(=O)(=O)C6CC6)cc5)CC4)cn3)CC2)cc1 [Compound 256, N-(1-(4-cyanobenzyl)piperidin-4-yl)-5-(4-(4-(cyclopropylsulfonyl)phenyl)piperazine-1-carbonyl)picolinamide]"
7,< 500,"N#Cc1ccc(CN2CCC(NC(=O)c3ccc(C(=O)N4CCN(c5ccc(S(=O)(=O)C(F)(F)F)cc5)CC4)cn3)CC2)cc1 [Compound 257, N-(1-(4-cyanobenzyl)piperidin-4-yl)-5-(4-(4-(trifluoromethylsulfonyl)phenyl)piperazine-1-carbonyl)picolinamide]"
8,< 500,"N#Cc1ccc(CN2CCC(NC(=O)c3ccc(C(=O)N4CCN(c5ccc(C(=O)C6CC6)cc5)CC4)cn3)CC2)cc1 [Compound 258, N-(1-(4-cyanobenzyl)piperidin-4-yl)-5-(4-(4-(cyclopropanecarbonyl)phenyl)piperazine-1-carbonyl)picolinamide]"
9,5000 to 10000,"O=C(NC1CCN(Cc2ccccc2)CC1)c1ccc(C(=O)NC2CCN(Cc3ccccc3)CC2)nc1 [Compound 264, N2,N5-bis(1-benzylpiperidin-4-yl)pyridine-2,5-dicarboxamide]"
10,1000 to 5000,"N#Cc1ccc(CN2CCC(NC(=O)c3ccc(N4CCCC(Oc5ccc(C#N)cc5)C4)cn3)CC2)cc1 (stereo not shown) [Compound 265, N-(1-(4-cyanobenzyl)piperidin-4-yl)-5-(3-(4-cyanophenoxy)piperidin-1-yl)picolinamide]"

# The next lines start with the molecule.
row,SMILES,EC50 [nM]
1,"CS(=O)(=O)c1ccc(C(=O)C2CCN(C(=O)c3ccc(C(=O)Nc4ccc(Oc5ccc(F)cc5)nc4)nc3)CC2)cc1 [Compound 232, N-(6-(4-fluorophenoxy)pyridin-3-yl)-5-(4-(4-(methylsulfonyl)benzoyl)piperidine-1-carbonyl)picolinamide]",< 500
2,"COc1ccc(CN2CCC(NC(=O)c3ccc(C(=O)N4CCC(C(=O)c5ccc(S(C)(=O)=O)cc5)CC4)cn3)CC2)cc1 [Compound 234, N-(1-(4-methoxybenzyl)piperidin-4-yl)-5-(4-(4-(methylsulfonyl)benzoyl)piperidine-1-carbonyl)picolinamide]",< 500
3,"CS(=O)(=O)c1ccc(OC2CCN(C(=O)c3ccc(C(=O)Nc4ccc(Oc5ccc(F)cc5)nc4)cn3)CC2)cc1 [Compound 235, N-(6-(4-fluorophenoxy)pyridin-3-yl)-6-(4-(4-(methylsulfonyl)phenoxy)piperidine-1-carbonyl)nicotinamide]",< 500
4,"CS(=O)(=O)c1ccc(OC2CCN(C(=O)c3ccc(C(=O)NC4CCN(Cc5cc(F)cc(F)c5)CC4)cn3)CC2)cc1 [Compound 236, N-(1-(3,5-difluorobenzyl)piperidin-4-yl)-6-(4-(4-(methylsulfonyl)phenoxy)piperidine-1-carbonyl)nicotinamide]",< 500
5,"COc1cccc(CN2CCC(NC(=O)c3ccc(C(=O)N4CCC(Oc5ccc(S(C)(=O)=O)cc5)CC4)nc3)CC2)c1 [Compound 238, N-(1-(3-methoxybenzyl)piperidin-4-yl)-6-(4-(4-(methylsulfonyl)phenoxy)piperidine-1-carbonyl)nicotinamide]",1000 to 5000
6,"COc1cccc(CN2CCC(NC(=O)c3ccc(C(=O)N4CCC(Oc5ccc(S(C)(=O)=O)cc5)CC4)cn3)CC2)c1 [Compound 241, N-(1-(3-methoxybenzyl)piperidin-4-yl)-5-(4-(4-(methylsulfonyl)phenoxy)piperidine-1-carbonyl)picolinamide]",< 500
7,"CS(=O)(=O)c1ccc(OC2CCN(C(=O)c3ccc(C(=O)NC4CCN(Cc5cccc(OC(F)(F)F)c5)CC4)nc3)CC2)cc1 [Compound 242, 5-(4-(4-(methylsulfonyl)phenoxy)piperidine-1-carbonyl)-N-(1-(3-(trifluoromethoxy)benzyl)piperidin-4-yl)picolinamide]",< 500
8,"CN1CCN(c2ccc(C(=O)C3CCN(C(=O)c4ccc(C(=O)NC5CCN(Cc6ccc(C#N)cc6)CC5)cn4)CC3)cc2)CC1 [Compound 243, N-(1-(4-cyanobenzyl)piperidin-4-yl)-6-(4-(4-(4-methylpiperazin-1-yl)benzoyl)piperidine-1-carbonyl)nicotinamide]",< 500
9,"CN1CCN(c2ccc(C(=O)C3CCN(C(=O)c4ccc(C(=O)NC5CCN(Cc6ccc(OC(F)(F)F)cc6)CC5)cn4)CC3)cc2)CC1 [Compound 244, 6-(4-(4-(4-methylpiperazin-1-yl)benzoyl)piperidine-1-carbonyl)-N-(1-(4-(trifluoromethoxy)benzyl)piperidin-4-yl)nicotinamide]",5000 to 10000
10,"CN1CCN(c2ccc(C(=O)C3CCN(C(=O)c4ccc(C(=O)Nc5ccc(Oc6ccc(F)cc6)nc5)cn4)CC3)cc2)CC1 [Compound 245, N-(6-(4-fluorophenoxy)pyridin-3-yl)-6-(4-(4-(4-methylpiperazin-1-yl)benzoyl)piperidine-1-carbonyl)nicotinamide]",< 500
11,"N#Cc1ccc(CN2CCC(NC(=O)c3ccc(C(=O)N4CCC(Oc5ccc(S(=O)(=O)C6CC6)cc5)CC4)nc3)CC2)cc1 [Compound 246, N-(1-(4-cyanobenzyl)piperidin-4-yl)-6-(4-(4-(cyclopropylsulfonyl)phenoxy)piperidine-1-carbonyl)nicotinamide]",< 500
12,"O=C(Nc1ccc(Oc2ccc(F)cc2)nc1)c1ccc(C(=O)N2CCC(Oc3ccc(S(=O)(=O)C4CC4)cc3)CC2)nc1 [Compound 247, 6-(4-(4-(cyclopropylsulfonyl)phenoxy)piperidine-1-carbonyl)-N-(6-(4-fluorophenoxy)pyridin-3-yl)nicotinamide]",< 500
13,"O=C(NC1CCN(Cc2ccc(N3CCCC3)cc2)CC1)c1ccc(C(=O)N2CCC(Oc3ccc(S(=O)(=O)C4CC4)cc3)CC2)nc1 [Compound 248, 6-(4-(4-(cyclopropylsulfonyl)phenoxy)piperidine-1-carbonyl)-N-(1-(4-(pyrrolidin-1-yl)benzyl)piperidin-4-yl)nicotinamide]",< 500
14,"O=C(NC1CCN(Cc2ccc(OC(F)(F)F)cc2)CC1)c1ccc(C(=O)N2CCC(Oc3ccc(S(=O)(=O)C4CC4)cc3)CC2)nc1 [Compound 249, 6-(4-(4-(cyclopropylsulfonyl)phenoxy)piperidine-1-carbonyl)-N-(1-(4-(trifluoromethoxy)benzyl)piperidin-4-yl)nicotinamide]",< 500
15,"CS(=O)(=O)c1ccc(N2CCN(C(=O)c3ccc(C(=O)NC4CCN(Cc5ccc(C#N)cc5)CC4)nc3)CC2)cc1 [Compound 250, N-(1-(4-cyanobenzyl)piperidin-4-yl)-5-(4-(4-(methylsulfonyl)phenyl)piperazine-1-carbonyl)picolinamide]",< 500
16,"CC(C)S(=O)(=O)c1ccc(N2CCN(C(=O)c3ccc(C(=O)NC4CCN(Cc5ccc(C#N)cc5)CC4)nc3)CC2)cc1 [Compound 251, N-(1-(4-cyanobenzyl)piperidin-4-yl)-5-(4-(4-(isopropylsulfonyl)phenyl)piperazine-1-carbonyl)picolinamide]",< 500
17,"CC(=O)c1ccc(Oc2ccc(NC(=O)c3ccc(C(=O)N4CCC(Oc5ccc(S(C)(=O)=O)cc5)CC4)cn3)cn2)cc1 [Compound 259, N-(6-(4-acetylphenoxy)pyridin-3-yl)-5-(4-(4-(methylsulfonyl)phenoxy)piperidine-1-carbonyl)picolinamide]",< 500
18,"CCS(=O)(=O)c1ccc(C(=O)C2CCN(C(=O)c3ccc(C(=O)NC4CCN(Cc5ccc(C#N)cc5)CC4)nc3)CC2)cc1 [Compound 260, N-(1-(4-cyanobenzyl)piperidin-4-yl)-5-(4-(4-(ethylsulfonyl)benzoyl)piperidine-1-carbonyl)picolinamide]",< 500
19,"CS(=O)(=O)c1ccc(OC2CCN(C(=O)c3ccc(C(=O)Nc4ccc(S(=O)(=O)c5ccc(F)cc5)nc4)nc3)CC2)cc1 [Compound 261, N-(6-(4-fluorophenylsulfonyl)pyridin-3-yl)-5-(4-(4-(methylsulfonyl)phenoxy)piperidine-1-carbonyl)picolinamide]",< 500
20,"N#Cc1ccc(CN2CCC(NC(=O)c3ccc(C(=O)N4CCC(S(=O)(=O)c5ccc(F)cc5)CC4)cn3)CC2)cc1 [Compound 262, N-(1-(4-cyanobenzyl)piperidin-4-yl)-5-(4-(4-fluorophenylsulfonyl)piperidine-1-carbonyl)picolinamide]",< 500
21,"N#Cc1ccc(CN2CCC(NC(=O)c3ccc(C(=O)N4CCN(c5ccc(C(=O)C(F)(F)F)cc5)CC4)cn3)CC2)cc1 [Compound 263, N-(1-(4-cyanobenzyl)piperidin-4-yl)-5-(4-(4-(2,2,2-trifluoroacetyl)phenyl)piperazine-1-carbonyl)picolinamide]",< 500
